What is called IC50 is the concentration needed to halve the response being measured. The term AC50 denotes the concentration giving half of the maximal activity seen. By EC50 is commonly meant the concentration at which the effect is half-maximal.

Structures are written as SMILES. Calls of active or inactive are those of the source.

One assay deals with T1, Bcl-2-related protein A1 (Mus musculus, UniProt Q07440).
T1 sequence (Q07440 whole entry): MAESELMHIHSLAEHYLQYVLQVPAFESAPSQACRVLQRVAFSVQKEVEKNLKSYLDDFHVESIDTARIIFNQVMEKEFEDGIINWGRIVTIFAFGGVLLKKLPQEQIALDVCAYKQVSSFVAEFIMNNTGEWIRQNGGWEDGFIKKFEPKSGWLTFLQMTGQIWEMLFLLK
It is filed as functional.

Assay [1] has as its target T2, Ubiquitin-conjugating enzyme E2 N (Homo sapiens, UniProt P61088).
T2 sequence (P61088 whole entry): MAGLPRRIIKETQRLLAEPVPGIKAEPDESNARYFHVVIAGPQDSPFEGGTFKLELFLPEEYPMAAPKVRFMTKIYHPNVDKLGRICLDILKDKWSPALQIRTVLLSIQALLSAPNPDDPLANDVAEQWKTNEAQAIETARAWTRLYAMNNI
Type of assay: functional.

The target in assay [2] is T2, Ubiquitin-conjugating enzyme E2 N. Type of assay: functional. This is another data set of the same source.
Assay [3] concerns the target T3, G-protein coupled receptor 35 (Homo sapiens, UniProt Q9HC97). In words: inhibition of zaprinast-stimulated GPR35 beta-arrestin translocation – imaging, U2OS, beta-arrestin-GFP, zaprinast agonist, primary screen (AID 2058).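 Also: antagonist potency meaning inhibition of agonist-induced arrestin redistribution.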 Type of assay: functional.
In assay [4] the target is T3, G-protein coupled receptor 35. In words: SAR Analysis for the identification of Selective Antagonists of ERK1/2 Activity in GPR35-Overexpressing U2OS Cells. [Related pubchem assays: 2079, 2058 ]. Type of assay: functional, cell-based.
The target in assay [5] is G-protein coupled receptor 55 (Homo sapiens, UniProt Q9Y2T6). In words: blockers of GPR55 signalling, imaged – imaging, image-based, counter-screen for GPR35 antagonist project, SAR follow-up (AID 2397). Type of assay: functional. A general note: The purpose of a counterscreen is to sort out artefacts and off-target activity.
In assay [6] the target is T4, Replicative DNA helicase DnaB (Mycobacterium tuberculosis, UniProt P9WMR3).
T4 sequence (P9WMR3 whole entry): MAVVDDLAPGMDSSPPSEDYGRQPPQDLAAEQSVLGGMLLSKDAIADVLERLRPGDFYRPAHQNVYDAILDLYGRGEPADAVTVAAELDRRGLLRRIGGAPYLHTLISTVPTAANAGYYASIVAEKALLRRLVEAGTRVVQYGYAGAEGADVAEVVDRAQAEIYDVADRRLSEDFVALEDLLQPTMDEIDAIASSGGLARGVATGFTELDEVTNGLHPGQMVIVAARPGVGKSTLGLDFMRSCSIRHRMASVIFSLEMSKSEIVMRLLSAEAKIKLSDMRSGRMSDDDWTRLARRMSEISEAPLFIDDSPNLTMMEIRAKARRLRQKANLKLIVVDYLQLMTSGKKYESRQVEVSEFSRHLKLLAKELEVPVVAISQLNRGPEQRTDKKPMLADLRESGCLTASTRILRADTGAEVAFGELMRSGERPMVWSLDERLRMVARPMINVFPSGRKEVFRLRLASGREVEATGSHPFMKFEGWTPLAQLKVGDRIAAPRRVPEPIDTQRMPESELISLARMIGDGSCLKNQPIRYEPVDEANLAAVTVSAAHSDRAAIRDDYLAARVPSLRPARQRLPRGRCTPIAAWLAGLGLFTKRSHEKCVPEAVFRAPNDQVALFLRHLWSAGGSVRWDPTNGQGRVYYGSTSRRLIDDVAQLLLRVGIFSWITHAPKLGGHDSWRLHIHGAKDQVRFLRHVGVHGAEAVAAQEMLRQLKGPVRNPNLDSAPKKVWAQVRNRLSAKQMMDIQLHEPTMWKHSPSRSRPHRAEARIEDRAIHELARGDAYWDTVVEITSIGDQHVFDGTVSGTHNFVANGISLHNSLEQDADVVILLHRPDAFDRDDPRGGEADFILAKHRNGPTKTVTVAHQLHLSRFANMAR
The assay is described as follows: DnaB intein splicing inhibitors, dose response, biochemical, cell-free fluorescence (AID 449749). It is filed as functional.

The next assay deals with T5, Protein RecA (Mycobacterium tuberculosis, UniProt P9WHJ3).
T5 sequence (P9WHJ3 whole entry): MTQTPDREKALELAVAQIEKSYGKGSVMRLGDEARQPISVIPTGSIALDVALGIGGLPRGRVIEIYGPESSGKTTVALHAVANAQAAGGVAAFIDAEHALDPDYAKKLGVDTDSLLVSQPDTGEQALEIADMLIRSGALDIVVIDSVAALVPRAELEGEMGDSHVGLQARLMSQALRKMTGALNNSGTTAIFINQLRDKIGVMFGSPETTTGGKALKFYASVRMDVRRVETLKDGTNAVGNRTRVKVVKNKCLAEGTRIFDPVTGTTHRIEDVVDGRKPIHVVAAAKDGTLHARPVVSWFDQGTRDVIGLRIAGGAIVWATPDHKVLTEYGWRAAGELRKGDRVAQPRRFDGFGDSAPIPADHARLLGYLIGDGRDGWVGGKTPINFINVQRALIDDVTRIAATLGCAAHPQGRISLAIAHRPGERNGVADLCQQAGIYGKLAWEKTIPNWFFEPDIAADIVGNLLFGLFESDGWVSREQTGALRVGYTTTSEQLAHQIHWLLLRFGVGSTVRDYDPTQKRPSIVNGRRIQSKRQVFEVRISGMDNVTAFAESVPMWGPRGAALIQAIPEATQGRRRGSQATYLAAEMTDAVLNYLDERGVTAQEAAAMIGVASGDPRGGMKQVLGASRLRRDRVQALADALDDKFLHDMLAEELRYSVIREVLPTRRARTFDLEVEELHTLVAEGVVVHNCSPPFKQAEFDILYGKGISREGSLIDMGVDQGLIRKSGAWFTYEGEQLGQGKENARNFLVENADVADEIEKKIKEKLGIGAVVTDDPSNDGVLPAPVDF
In words: Fluorescence Cell-Free Homogeneous Dose Retest to Identify Inhibitors of RecA-Intein Splicing Activity. [Related pubchem assays (depositor defined):AID2097, AID2223, AID489010, AID492950]. Type of assay: functional.

The target in another assay is T6, Caspase-3 (Homo sapiens, UniProt P42574).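 Also: Dose-response selectivity test against caspase-3 for candidate inhibitors of sentrin-specific proteases (SENPs).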
T6 sequence (P42574 whole entry): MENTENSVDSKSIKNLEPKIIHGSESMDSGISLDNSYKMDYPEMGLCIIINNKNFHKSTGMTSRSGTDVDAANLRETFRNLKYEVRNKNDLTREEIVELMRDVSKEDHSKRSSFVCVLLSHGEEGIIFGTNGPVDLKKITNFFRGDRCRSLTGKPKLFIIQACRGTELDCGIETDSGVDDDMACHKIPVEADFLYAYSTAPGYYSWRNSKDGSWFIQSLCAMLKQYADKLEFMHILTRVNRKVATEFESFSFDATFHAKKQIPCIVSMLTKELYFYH
It is filed as functional.

The target of assay [7] is T7, Sentrin-specific protease 7 (Homo sapiens, UniProt Q9BQF6).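 Also: Luminescence-based dose-response confirmation of ultra-high-throughput screening hits, measuring inhibition of SENP7.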
T7 sequence (Q9BQF6 whole entry): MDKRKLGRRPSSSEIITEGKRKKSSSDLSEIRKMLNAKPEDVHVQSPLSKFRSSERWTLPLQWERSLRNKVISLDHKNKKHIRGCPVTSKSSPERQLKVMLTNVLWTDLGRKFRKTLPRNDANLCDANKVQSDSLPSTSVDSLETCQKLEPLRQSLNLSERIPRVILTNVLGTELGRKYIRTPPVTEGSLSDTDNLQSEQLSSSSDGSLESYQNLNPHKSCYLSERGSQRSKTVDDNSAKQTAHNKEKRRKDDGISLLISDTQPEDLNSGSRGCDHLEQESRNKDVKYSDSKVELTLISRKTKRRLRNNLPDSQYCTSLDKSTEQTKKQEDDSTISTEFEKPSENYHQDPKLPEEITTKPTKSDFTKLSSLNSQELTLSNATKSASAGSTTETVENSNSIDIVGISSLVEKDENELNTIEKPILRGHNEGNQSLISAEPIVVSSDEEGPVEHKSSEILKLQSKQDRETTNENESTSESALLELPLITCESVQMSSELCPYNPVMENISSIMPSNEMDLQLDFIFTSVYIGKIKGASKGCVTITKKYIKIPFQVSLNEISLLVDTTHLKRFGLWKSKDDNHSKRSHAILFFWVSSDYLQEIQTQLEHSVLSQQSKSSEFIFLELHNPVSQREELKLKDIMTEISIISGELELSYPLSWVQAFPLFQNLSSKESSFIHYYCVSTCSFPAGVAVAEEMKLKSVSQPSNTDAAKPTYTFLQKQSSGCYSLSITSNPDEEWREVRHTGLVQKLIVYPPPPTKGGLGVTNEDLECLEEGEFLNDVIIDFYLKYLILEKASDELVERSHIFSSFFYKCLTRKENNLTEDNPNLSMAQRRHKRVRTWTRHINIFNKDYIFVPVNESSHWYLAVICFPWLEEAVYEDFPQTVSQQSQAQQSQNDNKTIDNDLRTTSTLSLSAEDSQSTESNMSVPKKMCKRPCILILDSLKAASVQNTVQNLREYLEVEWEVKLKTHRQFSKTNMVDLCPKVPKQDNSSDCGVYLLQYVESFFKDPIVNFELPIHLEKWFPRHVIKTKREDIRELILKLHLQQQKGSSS
Type of assay: functional.

Assay [8] deals with T8, Sentrin-specific protease 6 (Homo sapiens, UniProt Q9GZR1).
T8 sequence (Q9GZR1 whole entry): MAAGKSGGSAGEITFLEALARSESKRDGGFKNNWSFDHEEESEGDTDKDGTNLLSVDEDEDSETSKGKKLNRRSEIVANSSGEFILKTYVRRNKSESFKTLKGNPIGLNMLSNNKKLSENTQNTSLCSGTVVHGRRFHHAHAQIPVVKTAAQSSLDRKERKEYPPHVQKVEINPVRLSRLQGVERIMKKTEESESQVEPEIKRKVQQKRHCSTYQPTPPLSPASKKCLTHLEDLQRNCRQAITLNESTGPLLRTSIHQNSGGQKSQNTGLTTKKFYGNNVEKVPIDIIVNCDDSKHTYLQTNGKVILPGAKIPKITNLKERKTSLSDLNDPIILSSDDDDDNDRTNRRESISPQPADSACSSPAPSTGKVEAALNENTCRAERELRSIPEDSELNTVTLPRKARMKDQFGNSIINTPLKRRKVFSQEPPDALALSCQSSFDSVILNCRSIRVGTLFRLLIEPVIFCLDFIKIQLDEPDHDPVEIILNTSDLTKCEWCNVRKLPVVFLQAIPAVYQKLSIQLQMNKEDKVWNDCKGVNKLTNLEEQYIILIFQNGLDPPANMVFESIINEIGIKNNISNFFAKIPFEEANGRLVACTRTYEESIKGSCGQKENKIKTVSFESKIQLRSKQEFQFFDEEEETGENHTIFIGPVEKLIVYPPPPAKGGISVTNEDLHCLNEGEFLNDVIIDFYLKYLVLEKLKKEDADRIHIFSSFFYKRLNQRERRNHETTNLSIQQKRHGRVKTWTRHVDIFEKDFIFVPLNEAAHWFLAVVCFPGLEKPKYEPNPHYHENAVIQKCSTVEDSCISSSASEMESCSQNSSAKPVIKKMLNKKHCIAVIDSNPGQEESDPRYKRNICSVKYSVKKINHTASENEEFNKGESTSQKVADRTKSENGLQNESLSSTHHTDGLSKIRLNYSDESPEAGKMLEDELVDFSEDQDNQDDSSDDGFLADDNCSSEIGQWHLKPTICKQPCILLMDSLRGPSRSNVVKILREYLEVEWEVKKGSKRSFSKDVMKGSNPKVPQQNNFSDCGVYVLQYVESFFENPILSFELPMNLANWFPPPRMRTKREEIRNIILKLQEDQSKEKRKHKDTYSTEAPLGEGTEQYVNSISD
Type of assay: functional.

In assay [9] the target is T9, Sentrin-specific protease 8 (Homo sapiens, UniProt Q96LD8).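 Also: luminescence read-out of SENP8 inhibition, dose-response confirmation following an ultra-high-throughput screen.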
T9 sequence (Q96LD8 whole entry): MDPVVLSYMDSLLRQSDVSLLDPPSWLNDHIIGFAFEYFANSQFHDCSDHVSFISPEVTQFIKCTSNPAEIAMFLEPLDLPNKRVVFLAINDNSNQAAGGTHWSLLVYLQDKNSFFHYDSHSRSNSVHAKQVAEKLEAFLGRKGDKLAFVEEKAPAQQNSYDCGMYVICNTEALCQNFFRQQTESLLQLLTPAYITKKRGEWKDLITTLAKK
Type of assay: functional.

Assay [10] addresses Glucose-6-phosphate 1-dehydrogenase (Homo sapiens, UniProt P11413). In words: inhibition of Homo sapiens G6PD, dose series – biochemical, fluorescence, selectivity assay for P. falciparum G6PD inhibitor project, dose response (AID 504792). Type of assay: functional.
The nature of assay [11]: Luminescence Cell-Based Dose Retest to Confirm Inhibitors of Cancer Stem Cells. [Related pubchem assays (depositor defined):AID2717, AID2721]. The settings on record: Homo sapiens. It is filed as functional.
Assay [12] has as its target Voltage-dependent T-type calcium channel subunit alpha-1H (Homo sapiens, UniProt O95180). In words: inhibition of CACNA1H calcium flux – cell-based, SynthLib3 library, HEK293 Cav3.2, fluorescence (AID 493041). It is filed as functional. (A change in cytosolic calcium serves as a functional read-out for many receptors and channels.)

T3 sequence (Q9HC97 whole entry): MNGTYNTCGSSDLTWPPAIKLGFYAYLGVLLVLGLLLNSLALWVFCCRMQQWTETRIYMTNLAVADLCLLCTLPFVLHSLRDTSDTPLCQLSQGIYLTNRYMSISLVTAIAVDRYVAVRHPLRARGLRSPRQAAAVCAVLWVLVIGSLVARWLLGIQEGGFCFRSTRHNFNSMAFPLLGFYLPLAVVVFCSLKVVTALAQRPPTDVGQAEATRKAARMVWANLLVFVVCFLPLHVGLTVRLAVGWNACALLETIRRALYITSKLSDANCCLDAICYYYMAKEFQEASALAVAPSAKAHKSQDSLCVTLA
Voltage-dependent T-type calcium channel subunit alpha-1H, sequence (O95180 whole entry): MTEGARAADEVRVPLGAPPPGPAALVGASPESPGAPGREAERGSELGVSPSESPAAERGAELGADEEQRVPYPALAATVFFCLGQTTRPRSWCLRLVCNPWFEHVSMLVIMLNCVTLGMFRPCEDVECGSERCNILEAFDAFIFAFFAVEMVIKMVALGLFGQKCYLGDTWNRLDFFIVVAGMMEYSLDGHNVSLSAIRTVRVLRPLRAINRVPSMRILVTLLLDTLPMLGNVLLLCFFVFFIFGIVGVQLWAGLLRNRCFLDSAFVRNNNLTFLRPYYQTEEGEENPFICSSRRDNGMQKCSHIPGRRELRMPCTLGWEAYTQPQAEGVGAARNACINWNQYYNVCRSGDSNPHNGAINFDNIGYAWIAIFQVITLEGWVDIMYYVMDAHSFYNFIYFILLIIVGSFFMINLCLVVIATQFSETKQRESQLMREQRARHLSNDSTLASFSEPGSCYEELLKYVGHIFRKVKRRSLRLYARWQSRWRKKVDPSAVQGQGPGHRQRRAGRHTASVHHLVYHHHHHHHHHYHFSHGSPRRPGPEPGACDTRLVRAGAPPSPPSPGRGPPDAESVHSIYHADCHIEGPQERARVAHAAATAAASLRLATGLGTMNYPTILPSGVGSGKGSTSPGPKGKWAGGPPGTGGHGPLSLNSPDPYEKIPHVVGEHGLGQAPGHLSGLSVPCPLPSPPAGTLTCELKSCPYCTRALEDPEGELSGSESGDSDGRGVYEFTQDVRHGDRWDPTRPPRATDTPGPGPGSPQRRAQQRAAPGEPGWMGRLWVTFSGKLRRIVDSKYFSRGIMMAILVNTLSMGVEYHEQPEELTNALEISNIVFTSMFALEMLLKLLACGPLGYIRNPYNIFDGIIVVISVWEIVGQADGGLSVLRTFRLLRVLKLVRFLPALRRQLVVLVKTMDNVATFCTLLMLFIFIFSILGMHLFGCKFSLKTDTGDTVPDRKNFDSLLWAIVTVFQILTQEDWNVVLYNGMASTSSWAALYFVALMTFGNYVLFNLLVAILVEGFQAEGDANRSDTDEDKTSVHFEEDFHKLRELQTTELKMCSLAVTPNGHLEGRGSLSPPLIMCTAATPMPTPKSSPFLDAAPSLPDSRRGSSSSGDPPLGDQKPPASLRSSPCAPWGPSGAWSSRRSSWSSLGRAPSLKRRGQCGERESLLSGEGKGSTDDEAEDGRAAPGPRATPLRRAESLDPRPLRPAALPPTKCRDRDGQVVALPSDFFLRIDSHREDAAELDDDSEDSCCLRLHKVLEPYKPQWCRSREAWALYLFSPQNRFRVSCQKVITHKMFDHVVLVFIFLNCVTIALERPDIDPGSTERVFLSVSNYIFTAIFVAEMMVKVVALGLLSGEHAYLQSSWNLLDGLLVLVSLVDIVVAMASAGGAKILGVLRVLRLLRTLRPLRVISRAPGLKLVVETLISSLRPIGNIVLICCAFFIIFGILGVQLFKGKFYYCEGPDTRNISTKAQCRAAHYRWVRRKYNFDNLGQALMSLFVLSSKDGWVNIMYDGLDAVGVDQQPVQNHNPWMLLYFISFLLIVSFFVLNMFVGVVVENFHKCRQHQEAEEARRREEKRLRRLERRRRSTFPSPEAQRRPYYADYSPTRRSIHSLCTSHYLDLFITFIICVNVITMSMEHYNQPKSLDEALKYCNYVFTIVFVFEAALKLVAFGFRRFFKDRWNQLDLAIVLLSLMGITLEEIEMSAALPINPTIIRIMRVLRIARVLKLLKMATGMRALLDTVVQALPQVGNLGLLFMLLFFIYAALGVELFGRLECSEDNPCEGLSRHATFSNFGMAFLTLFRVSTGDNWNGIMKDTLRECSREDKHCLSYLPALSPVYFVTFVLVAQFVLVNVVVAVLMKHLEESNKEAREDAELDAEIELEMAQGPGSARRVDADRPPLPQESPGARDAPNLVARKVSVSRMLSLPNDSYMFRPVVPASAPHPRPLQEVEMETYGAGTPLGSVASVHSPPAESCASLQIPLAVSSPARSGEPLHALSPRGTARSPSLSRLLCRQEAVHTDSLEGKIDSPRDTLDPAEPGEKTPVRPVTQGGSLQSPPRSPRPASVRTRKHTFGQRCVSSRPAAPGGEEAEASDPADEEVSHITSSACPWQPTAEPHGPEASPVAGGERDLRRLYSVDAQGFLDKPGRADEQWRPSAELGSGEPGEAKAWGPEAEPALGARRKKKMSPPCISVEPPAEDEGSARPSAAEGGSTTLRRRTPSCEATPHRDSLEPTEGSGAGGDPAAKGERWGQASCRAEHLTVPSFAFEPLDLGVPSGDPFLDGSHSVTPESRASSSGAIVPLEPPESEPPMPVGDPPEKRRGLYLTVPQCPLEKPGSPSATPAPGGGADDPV
G-protein coupled receptor 55, sequence (Q9Y2T6 whole entry): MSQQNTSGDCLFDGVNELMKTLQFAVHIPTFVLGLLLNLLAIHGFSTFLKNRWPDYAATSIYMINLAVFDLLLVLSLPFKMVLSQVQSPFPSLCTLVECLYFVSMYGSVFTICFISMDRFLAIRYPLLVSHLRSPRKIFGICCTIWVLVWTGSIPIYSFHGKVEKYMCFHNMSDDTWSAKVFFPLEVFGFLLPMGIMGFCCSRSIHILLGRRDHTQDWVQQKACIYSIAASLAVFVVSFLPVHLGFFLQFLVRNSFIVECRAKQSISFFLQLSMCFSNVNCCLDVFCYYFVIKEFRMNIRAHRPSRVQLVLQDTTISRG
Glucose-6-phosphate 1-dehydrogenase, sequence (P11413 whole entry): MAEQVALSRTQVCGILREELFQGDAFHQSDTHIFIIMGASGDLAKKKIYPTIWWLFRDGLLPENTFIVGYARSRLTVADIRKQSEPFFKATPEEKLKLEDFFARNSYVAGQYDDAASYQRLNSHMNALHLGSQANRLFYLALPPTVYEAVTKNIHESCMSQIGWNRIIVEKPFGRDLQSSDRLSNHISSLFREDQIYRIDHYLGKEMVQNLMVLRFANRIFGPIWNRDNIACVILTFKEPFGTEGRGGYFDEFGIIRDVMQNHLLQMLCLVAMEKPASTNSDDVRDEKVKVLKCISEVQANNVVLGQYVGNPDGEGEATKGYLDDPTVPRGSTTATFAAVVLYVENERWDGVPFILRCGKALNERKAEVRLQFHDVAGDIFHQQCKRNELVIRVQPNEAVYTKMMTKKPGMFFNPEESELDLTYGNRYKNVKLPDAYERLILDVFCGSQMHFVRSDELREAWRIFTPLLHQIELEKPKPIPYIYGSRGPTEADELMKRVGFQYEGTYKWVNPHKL

`COC(=O)c1c(-c2ccc(SC)cc2)sc2ccc(OC)cc12`: the IC50 is > 20 µM (inactive) on Bcl-2-related protein A1, 18.9 µM (active) in [1] and > 20 µM (inactive) in assay [2].

For the molecule `O=C(CCCN1C(=O)S/C(=C\C=C\c2ccccc2)C1=O)Nc1ccc(C(=O)O)cc1`, the IC50 in assay [3] was 1.26 µM (active); in assay [4], 9.54 µM (active); in [5], 12.9 µM (inactive). The concentration at half-maximal activity (AC50) in assay [6] is 39.2 µM (active). The EC50 on Protein RecA is 51.2 µM (active).

Turning to `O=C(CCCN1C(=O)S/C(=C/c2ccccc2)C1=S)Nc1ccc(C(=O)O)cc1`, the half-maximal inhibitory concentration (IC50) is 1.51 µM (active) in [3]; 1.45 µM (active) in assay [4]; 23.5 µM (active) on Caspase-3; 21.3 µM (active) in assay [7]; 23.7 µM (active) in assay [8]; 29.8 µM (active) in assay [9]. In assay [5], the IC50 was > 32 µM (inactive).

For `NCCNc1ccc(C(=O)N2c3ccccc3Sc3ccccc32)cc1[N+](=O)[O-]`, the IC50 in [10] is > 80 µM (inactive); at Bcl-2-related protein A1, > 20 µM (inactive); in assay [1] it was 9.58 µM (active); in assay [2], 10.9 µM (active). In addition, in assay [11], the concentration at half-maximal activity (AC50) was 6.81 µM (active).

As for `CCCN1C[C@@H]2C(CNC(=O)c3cc(Cl)cc(Cl)c3)[C@@H]2C1` (some centres not stated), in [12], the EC50 was 10 µM (active).

As to `CC(Cc1nnc(NC(=O)COc2ccc(F)cc2Cl)o1)CC(C)(C)C` (configuration not stated), the EC50 in assay [12] is 1.2 µM (active).

Values taken from ChEMBL document CHEMBL1201862, “PubChem BioAssay data set” (2004).
